For five molecules, IC50 and Activity results are on record in ChEMBL document CHEMBL1155316, “Benzo[d]imidazole inhibitors of Coactivator Associated Arginine Methyltransferase 1 (CARM1)--Hit to Lead studies” (Bioorg Med Chem Lett, 2009).

Broadly, the IC50 is the concentration that gives 50% inhibition.

The target in assay [1] is T1, Histone-arginine methyltransferase CARM1 (Homo sapiens, UniProt Q86X55).
T1 sequence (Q86X55 whole entry): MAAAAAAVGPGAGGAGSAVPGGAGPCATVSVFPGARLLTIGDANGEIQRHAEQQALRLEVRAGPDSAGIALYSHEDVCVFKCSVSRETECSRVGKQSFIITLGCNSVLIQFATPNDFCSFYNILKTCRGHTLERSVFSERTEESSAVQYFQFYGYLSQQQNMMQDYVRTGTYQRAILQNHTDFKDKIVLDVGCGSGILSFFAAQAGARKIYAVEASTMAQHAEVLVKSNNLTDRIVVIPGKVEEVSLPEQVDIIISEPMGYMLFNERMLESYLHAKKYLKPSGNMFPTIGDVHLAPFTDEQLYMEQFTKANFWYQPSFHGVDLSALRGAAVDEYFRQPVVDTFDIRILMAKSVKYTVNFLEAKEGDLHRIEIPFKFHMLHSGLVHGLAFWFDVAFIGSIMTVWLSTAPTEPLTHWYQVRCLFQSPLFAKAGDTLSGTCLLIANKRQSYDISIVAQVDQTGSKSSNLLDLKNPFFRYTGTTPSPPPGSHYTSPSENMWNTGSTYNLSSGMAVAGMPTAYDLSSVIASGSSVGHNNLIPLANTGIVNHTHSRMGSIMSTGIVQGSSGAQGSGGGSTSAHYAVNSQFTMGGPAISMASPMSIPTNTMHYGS
Kind of assay: Inhibition of human CARM1 assessed as inhibition of histone3 methylation.

The target of assay [2] is Protein arginine N-methyltransferase 3 (Homo sapiens, UniProt O60678). Kind of assay: Inhibition of PRMT3.
The target in assay [3] is Protein arginine N-methyltransferase 1 (Homo sapiens, UniProt Q99873). Kind of assay: Inhibition of PRMT1.
The target in assay [4] is T2, Histone-arginine methyltransferase CARM1 (Homo sapiens) (UniProt Q86X55).
T2 sequence (whole entry): T1 sequence (Q86X55 whole entry)
Kind of assay: Inhibition of human CARM1 assessed as inhibition of HuR methylation.

Assay [5] addresses T2, Histone-arginine methyltransferase CARM1 (Homo sapiens). Description: Inhibition of human CARM1 assessed as inhibition of PABP methylation.

Active and inactive are the calls of the source. The rule behind the calls is not given here.

Sequence of Protein arginine N-methyltransferase 1 (Q99873 whole entry): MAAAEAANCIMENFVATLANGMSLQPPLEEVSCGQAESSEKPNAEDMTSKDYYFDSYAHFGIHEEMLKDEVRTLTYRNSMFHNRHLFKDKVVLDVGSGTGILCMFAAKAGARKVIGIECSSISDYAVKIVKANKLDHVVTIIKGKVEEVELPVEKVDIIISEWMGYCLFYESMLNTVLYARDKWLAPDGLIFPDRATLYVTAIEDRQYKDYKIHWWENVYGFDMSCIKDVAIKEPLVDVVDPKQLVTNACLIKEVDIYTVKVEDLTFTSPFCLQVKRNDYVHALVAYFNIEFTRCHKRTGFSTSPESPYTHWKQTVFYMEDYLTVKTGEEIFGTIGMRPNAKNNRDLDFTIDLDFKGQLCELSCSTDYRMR
Sequence of Protein arginine N-methyltransferase 3 (O60678 whole entry): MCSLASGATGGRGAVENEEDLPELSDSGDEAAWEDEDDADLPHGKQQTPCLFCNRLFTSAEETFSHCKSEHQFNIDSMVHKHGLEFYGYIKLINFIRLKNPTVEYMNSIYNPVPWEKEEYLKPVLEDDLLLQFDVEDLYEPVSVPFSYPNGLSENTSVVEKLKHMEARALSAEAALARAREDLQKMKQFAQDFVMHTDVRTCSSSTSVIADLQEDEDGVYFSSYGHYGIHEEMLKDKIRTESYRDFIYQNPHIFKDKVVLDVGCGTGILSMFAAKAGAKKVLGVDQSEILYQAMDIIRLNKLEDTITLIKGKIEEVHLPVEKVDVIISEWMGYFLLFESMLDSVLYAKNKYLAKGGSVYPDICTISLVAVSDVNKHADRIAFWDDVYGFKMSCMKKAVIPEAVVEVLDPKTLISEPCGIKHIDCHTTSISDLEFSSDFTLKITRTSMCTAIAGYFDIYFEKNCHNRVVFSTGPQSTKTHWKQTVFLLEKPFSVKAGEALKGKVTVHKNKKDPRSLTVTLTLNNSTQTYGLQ

Consider `CN[C@H](C)CN1CCC(c2cc(C)c3nc(-c4cccnc4OC)[nH]c3c2)CC1`, for which the IC50 in assay [1] is greater than 30 µM.
Regarding `CN[C@@H](C)CN1CCC(c2cc(C)c3nc(-c4cccnc4OC)[nH]c3c2)CC1`, the IC50 in assay [1] was greater than 30 µM.
On the same count and under the same terms, to `C[C@H](N)C(=O)NCc1cccc(-n2nc(C(F)(F)F)cc2-c2nnc(-c3cccc4ncsc34)o2)c1` belongs 0.04 µM.
Consider `CNCCN1CCC(c2cc(C)c3nc(-c4c(OC)cccc4OC)[nH]c3c2)CC1`, for which the IC50 in assay [2] and in assay [3] was greater than 25 µM each time.
Consider `CNCCN1CCC(c2cc(C)c3[nH]c(-c4c(OC)cccc4OC)nc3c2)CC1`, for which the outcome in assay [4] and in assay [5] was Active.
